Laboratory results as given in US7759331B2, “Pyridine-containing macroheterococylic compounds as kinase inhibitors” (Janssen Pharmaceutica NV, priority 2006, dated 2010).

What was measured:
Experiment in all cases: Protein kinase selectivity panel
Type in all cases: biochemical
Settings in all cases: 1.0 μM compound, 10 μM ATP
[1] = target: FGFR3(h) (Homo sapiens, UniProt P22607)
Procedure, shortened: (§1)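 Kinase, its appropriate substrate, and 10 μM ATP were combined with 1.0 μM compound. Phosphorylation was then allowed to proceed within the time-linear range and measured.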

[2] = target: T1, IKKα(h) (Homo sapiens, UniProt O15111)
T1 sequence (O15111 1-745): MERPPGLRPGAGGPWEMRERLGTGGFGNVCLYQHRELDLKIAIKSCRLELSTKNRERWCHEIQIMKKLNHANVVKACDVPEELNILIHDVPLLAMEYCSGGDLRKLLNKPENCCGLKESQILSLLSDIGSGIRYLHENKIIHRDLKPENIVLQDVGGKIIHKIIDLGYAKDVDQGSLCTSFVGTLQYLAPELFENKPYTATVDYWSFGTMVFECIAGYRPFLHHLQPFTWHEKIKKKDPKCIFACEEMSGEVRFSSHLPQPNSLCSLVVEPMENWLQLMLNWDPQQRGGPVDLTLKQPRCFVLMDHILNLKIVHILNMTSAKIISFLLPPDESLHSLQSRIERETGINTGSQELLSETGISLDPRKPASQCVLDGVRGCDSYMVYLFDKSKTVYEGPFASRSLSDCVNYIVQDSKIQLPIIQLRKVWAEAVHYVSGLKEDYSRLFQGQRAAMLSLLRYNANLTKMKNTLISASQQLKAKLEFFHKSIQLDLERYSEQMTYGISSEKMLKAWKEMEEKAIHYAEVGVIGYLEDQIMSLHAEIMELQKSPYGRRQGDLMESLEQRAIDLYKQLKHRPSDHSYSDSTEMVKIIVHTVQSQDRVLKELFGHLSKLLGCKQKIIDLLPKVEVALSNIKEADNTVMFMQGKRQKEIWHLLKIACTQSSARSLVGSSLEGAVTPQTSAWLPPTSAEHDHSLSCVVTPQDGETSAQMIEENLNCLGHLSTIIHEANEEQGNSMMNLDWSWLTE
Procedure, shortened: as §1

[3] = target: T2, PKCι(h) (Homo sapiens, UniProt P41743)
T2 sequence (P41743 1-596): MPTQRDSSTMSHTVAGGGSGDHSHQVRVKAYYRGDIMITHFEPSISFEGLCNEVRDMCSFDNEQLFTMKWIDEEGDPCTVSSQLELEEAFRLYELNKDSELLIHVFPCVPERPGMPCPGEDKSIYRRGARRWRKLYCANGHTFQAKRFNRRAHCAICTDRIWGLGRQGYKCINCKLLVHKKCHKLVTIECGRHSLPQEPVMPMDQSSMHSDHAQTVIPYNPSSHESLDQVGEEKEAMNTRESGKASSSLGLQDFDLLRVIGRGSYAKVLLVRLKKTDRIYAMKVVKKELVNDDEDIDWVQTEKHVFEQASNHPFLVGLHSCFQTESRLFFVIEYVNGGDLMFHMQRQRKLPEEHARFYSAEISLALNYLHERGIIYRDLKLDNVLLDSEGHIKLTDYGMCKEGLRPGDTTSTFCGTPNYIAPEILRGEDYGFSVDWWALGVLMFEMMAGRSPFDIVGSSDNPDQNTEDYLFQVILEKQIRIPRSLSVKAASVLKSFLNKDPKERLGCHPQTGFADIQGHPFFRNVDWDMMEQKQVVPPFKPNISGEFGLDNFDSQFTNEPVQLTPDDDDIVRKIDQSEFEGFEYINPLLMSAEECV
Procedure, shortened: as §1

[4] = target: T3, NEK2(h) (Homo sapiens, UniProt P51955)
T3 sequence (P51955 1-445): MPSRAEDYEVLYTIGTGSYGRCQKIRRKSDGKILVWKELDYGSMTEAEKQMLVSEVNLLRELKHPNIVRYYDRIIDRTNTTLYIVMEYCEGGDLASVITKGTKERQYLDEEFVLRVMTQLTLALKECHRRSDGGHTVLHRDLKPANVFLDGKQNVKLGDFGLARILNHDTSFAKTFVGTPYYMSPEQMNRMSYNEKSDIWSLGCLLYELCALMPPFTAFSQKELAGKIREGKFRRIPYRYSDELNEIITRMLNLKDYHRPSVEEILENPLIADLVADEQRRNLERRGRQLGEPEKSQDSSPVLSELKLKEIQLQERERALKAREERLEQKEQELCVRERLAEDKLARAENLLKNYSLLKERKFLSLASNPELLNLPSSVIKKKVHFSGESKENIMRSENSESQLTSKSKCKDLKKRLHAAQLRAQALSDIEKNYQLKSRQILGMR
Procedure, shortened: as §1

[5] = target: CDK7/cyclinH/MAT1(h) (Homo sapiens, UniProt P50613)
Procedure, shortened: as §1

[6] = target: T4, PKD2(h) (Homo sapiens, UniProt Q9BZL6)
T4 sequence (Q9BZL6 1-878): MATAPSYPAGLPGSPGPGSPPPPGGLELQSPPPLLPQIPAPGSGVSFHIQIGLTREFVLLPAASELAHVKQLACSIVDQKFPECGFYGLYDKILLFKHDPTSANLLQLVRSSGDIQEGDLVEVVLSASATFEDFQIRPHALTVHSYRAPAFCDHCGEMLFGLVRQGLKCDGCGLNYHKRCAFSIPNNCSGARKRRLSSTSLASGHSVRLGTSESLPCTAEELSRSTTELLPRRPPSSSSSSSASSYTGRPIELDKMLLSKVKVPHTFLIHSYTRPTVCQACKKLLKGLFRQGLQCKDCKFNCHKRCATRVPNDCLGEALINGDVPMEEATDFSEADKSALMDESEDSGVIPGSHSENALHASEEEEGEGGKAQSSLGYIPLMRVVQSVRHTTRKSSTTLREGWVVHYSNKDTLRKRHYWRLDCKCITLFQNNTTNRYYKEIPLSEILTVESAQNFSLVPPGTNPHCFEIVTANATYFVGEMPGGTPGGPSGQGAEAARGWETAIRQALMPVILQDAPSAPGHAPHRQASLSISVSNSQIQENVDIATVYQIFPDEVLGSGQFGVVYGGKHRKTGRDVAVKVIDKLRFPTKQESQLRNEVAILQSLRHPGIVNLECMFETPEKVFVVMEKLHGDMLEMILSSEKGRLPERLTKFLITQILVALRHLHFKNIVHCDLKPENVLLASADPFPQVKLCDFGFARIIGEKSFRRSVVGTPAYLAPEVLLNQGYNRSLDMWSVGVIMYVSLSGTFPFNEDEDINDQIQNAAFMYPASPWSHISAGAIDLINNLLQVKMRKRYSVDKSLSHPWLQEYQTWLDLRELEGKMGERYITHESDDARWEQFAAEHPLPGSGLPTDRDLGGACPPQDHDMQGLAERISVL
Procedure, shortened: as §1

CDK7/cyclinH/MAT1(h), sequence (P50613 whole entry): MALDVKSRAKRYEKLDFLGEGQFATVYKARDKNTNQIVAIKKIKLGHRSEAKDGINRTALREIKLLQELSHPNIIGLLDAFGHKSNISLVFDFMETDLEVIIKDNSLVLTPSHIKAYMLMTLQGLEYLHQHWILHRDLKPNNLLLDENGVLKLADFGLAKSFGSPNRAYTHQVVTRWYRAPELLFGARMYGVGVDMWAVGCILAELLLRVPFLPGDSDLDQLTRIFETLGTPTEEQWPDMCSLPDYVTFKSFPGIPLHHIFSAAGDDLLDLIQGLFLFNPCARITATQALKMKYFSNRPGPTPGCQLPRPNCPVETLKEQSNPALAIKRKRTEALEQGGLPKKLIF
CDK7/cyclinH/MAT1(h), sequence (P51946 whole entry partner): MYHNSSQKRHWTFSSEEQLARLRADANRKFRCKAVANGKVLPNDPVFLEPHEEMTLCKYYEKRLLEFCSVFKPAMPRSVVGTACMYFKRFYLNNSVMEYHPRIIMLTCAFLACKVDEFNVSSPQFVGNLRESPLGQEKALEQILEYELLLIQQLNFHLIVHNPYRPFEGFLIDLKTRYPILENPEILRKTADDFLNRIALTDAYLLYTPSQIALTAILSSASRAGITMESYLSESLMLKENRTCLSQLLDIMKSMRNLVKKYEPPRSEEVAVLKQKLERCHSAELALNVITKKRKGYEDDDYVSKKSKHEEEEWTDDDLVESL
CDK7/cyclinH/MAT1(h), sequence (P51948 whole entry partner): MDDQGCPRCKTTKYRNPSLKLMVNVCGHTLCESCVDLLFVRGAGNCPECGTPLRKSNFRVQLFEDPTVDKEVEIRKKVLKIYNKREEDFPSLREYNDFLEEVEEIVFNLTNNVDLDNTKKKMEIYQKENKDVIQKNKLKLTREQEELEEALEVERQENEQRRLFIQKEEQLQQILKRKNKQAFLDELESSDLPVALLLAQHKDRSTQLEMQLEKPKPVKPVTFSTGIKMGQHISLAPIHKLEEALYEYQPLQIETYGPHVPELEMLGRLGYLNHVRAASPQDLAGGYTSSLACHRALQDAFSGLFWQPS
FGFR3(h), sequence (P22607 23-806): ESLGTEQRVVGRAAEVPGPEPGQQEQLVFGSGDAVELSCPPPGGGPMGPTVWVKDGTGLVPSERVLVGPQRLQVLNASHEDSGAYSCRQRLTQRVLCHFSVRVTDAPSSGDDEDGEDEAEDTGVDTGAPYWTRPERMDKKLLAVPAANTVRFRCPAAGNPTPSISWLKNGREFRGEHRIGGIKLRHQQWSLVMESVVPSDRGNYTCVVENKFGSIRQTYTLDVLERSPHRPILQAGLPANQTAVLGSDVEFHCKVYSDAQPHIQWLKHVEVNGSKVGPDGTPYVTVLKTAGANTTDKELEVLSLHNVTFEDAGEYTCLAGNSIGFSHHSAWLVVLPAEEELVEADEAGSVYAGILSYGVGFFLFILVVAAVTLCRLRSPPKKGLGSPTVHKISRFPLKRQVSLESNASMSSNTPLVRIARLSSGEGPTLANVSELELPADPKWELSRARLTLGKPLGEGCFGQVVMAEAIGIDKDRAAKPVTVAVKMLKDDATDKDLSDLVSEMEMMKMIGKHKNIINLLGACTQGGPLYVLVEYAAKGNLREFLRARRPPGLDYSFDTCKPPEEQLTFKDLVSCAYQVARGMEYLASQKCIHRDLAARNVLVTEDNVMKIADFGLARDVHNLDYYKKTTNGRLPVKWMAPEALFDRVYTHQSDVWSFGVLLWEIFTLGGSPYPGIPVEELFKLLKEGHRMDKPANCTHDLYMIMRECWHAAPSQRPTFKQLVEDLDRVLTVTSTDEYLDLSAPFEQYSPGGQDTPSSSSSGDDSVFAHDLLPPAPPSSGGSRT

| Activity at Protein Kinase Assays (% of control), FGFR3(h) [1] | Activity at Protein Kinase Assays (% of control), IKKα(h) [2] | Activity at Protein Kinase Assays (% of control), PKCι(h) [3] | Activity at Protein Kinase Assays (% of control), NEK2(h) [4] | Activity at Protein Kinase Assays (% of control), CDK7/cyclinH/MAT1(h) [5] | Activity at Protein Kinase Assays (% of control), PKD2(h) [6] | Structure (SMILES) |
| --- | --- | --- | --- | --- | --- | --- |
| 114 % of control | 132 % of control | 121 % of control | 105 % of control | 107 % of control | 103 % of control | O=C1NC(=O)C2=C1c1cn(c3ccccc13)CCCc1cc(nc(N3CCCC3)c1)CCCn1cc2c2ccccc21 [Cpd 6, 20-pyrrolidin-1-yl-4,14,19,26-tetraazaheptacyclo[24.6.1.1^7,14.1^18,22.0^2,6.0^8,13.0^27,32]pentatriaconta-1(33),2(6),7(35),8,10,12,18(34),19,21,27,29,31-dodecaene-3,5-dione] |
| 117 % of control | 121 % of control | 90 % of control | 99 % of control | 111 % of control | 115 % of control | O=C1NC(=O)C2=C1c1cn(c3ccccc13)CCCc1ccc(c(N3CCCC3)n1)CCCn1cc2c2ccccc21 [Cpd 7, 31-pyrrolidin-1-yl-5,15,25,30-tetraazaheptacyclo[27.2.2.1^5,12.1^18,25.0^6,11.0^13,17.0^19,24]pentatriaconta-1(31),6,8,10,12(35),13(17),18(34),19,21,23,29,32-dodecaene-14,16-dione] |
| 84 % of control | 133 % of control | 117 % of control | 102 % of control | 108 % of control | 97 % of control | CN(C)c1cc2cc(n1)CCCn1cc(c3ccccc31)C1=C(C(=O)NC1=O)c1cn(c3ccccc13)CCC2 [Cpd 2, 20-(dimethylamino)-4,14,19,26-tetraazaheptacyclo[24.6.1.1^7,14.1^18,22.0^2,6.0^8,13.0^27,32]pentatriaconta-1(33),2(6),7(35),8,10,12,18(34),19,21,27,29,31-dodecaene-3,5-dione] |
| 75 % of control | 92 % of control | 104 % of control | 104 % of control | 89 % of control | 100 % of control | CN(C)c1nc2ccc1CCCCn1cc(c3ccccc31)C1=C(C(=O)NC1=O)c1cn(c3ccccc13)CCC2 [Cpd 1, 31-(dimethylamino)-5,15,25,32-tetraazaheptacyclo[28.2.2.1^5,12.1^18,25.0^6,11.0^13,17.0^19,24]hexatriaconta-1(32),6,8,10,12(36),13(17),18(35),19,21,23,30,33-dodecaene-14,16-dione] |
